Assay [1] deals with Rat Spinal Nerve Ligation Model. The assay is described as follows: Rat Spinal Nerve Ligation (SNL, Chung) model, mechanical allodynia by von Frey filaments. Type of assay: in vivo. The following applies: 30 mg/kg, p.o., PWT two hours after the treatment. The procedure:
Rat Spinal Nerve Ligation Model
Analgesic efficacy was examined through the Spinal Nerve Ligation (SNL) model, also known as the Chung model (Kim and Chung, 1992). SNL model is one of the most frequently used animal models for the assessment of neuropathic pain behavior.
Briefly, the lumbar 5 spinal nerve is ligated with silk suture distal to the dorsal root ganglion. After two weeks of recovery, mechanical allodynia in the affected paw of animals was evaluated using von Frey filaments. Using the Dixons Up-Down method (Chaplan et al, 1994), a pre-drug baseline was taken with allodynia defined as a paw withdrawal threshold (PWT)<4 g. Test compounds (at 30 mg/kg) or vehicle were then orally administered, and PWT was determined two hours after the treatment. Statistical mean values of PWT for vehicle control and drug treatment groups were calculated, and the percent of maximum possible effect (% MPE) value was determined according to the following formula; % MPE=[(post-drug PWT−pre-drug PWT)/(cutoff PWT−pre-drug PWT)]×100.

Assay [2] has as its target T1, human Nav1.7 channels (Homo sapiens, UniProt Q15858).
T1 construct: host or cells: HEK293
The assay is described as follows: hNav1.7 channel assay, whole cell patch clamp, two-pulse protocol. The following applies: TP2 (inactivated phase inhibition), HEK293 cells stably expressing human Nav1.7, read-out: Inhibition activity: percent inhibition on the inactivated state of hNav1.7. The assay is classed as cell-based. The source says:
Whole cell patch clamp technique was used to investigate the inhibitory effects of the compound of Examples on human Nav1.7 channels, stably expressed in HEK293 cells. Human Nav1.7 recombinant cell line (CYL3011-precisION) was purchased from Eurofins.
Two-pulse protocol was used every 10 seconds to assess the state-dependent inhibition by Examples. From the holding potential of −90 mV, pre-pulse (200 ms at −120 mV) was followed by test pulse1 ([…]), then test pulse2 (TP2: 20 ms at 0 mV) was evoked after inter-pulse (20 ms at −100 mV).
Peak current amplitudes were measured for test pulses TP1 (resting phase inhibition) and TP2 (inactivated phase inhibition). The following solutions were used for screening assay: External (mM): 145 NaCl, 1 MgCl2, 1.8 CaCl2, 10 Hepes, 5 Glucose, pH 7.4, 300 mOsm; Internal (mM): 120 CsF, 10 NaCl, 10 EGTA, 10 HEPES, pH 7.2, 290 mOsm.
The inhibition on the inactivated state of hNav1.7 was calculated as: % inhibition (inactivation state)=(1−(ITP2, TA/ITP2, Control)×100%, where ITP2 (the inward peak Na+ currents), Control and ITP2, TA were elicited by the TP2 in control (vehicle only) and in the presence of a test article (TA) indicating Examples, respectively.

T1 sequence (Q15858 whole entry): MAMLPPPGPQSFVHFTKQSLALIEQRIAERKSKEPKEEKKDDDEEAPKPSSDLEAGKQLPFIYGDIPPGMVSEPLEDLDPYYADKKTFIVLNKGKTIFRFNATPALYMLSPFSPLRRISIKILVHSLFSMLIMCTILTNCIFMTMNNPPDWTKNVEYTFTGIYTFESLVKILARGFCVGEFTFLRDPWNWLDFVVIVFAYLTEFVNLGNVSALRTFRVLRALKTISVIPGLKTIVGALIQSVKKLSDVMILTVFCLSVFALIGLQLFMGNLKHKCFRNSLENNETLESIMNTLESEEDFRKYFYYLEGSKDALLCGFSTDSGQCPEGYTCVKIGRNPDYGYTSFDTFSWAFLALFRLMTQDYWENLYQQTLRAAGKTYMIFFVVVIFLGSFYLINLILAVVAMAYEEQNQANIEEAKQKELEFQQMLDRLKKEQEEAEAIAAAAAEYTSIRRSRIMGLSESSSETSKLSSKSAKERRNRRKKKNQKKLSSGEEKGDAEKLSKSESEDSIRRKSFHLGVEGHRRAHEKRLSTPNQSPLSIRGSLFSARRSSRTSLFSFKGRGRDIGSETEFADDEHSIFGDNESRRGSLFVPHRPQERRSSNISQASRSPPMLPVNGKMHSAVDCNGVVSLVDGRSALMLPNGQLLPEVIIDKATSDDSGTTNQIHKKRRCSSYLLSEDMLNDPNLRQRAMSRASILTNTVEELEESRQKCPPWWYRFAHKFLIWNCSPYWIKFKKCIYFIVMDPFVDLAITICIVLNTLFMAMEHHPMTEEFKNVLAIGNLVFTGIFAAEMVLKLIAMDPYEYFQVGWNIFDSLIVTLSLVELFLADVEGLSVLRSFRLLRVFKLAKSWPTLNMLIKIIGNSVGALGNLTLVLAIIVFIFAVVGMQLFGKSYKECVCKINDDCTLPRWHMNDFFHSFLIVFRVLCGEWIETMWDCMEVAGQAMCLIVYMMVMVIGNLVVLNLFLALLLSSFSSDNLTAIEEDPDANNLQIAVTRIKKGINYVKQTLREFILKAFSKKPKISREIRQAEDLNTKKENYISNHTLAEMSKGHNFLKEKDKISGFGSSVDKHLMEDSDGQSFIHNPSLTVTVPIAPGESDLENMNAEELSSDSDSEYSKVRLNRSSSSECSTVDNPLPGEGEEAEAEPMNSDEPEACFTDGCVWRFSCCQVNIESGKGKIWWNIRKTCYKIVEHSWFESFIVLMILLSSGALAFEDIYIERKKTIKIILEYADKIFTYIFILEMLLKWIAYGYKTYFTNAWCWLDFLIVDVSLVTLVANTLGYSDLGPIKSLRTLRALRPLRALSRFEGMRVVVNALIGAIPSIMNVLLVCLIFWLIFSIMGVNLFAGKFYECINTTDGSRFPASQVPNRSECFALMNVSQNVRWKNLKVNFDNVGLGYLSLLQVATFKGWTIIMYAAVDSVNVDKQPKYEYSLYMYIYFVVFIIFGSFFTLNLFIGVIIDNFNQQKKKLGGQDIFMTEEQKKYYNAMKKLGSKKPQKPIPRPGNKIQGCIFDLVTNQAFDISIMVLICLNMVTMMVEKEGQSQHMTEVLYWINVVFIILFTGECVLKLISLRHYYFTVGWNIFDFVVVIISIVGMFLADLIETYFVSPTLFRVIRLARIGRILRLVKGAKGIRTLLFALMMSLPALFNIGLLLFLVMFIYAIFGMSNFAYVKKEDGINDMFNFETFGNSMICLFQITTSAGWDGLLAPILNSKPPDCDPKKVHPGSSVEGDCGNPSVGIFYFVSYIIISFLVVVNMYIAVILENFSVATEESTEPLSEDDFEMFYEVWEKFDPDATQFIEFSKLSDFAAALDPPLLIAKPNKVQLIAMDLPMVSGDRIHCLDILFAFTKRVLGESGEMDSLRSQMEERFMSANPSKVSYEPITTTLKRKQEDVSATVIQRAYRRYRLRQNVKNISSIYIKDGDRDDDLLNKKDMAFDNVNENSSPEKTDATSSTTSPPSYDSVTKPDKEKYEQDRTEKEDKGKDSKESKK

With `O=C(NCc1cccc[n+]1[O-])c1cccc(-c2ccc(Cl)cc2)c1` [Example 2, 3-(4-chlorophenyl)-N-[(1-oxidopyridin-1-ium-2-yl)methyl]benzamide], the “in vivo efficacy: % MPE” value in assay [1] is “+++ (+++: 70-100%)”. For the same compound, the inhibition at 10 µM in assay [2] is 70 to 100%.

For `O=C(NCc1cccc[n+]1[O-])c1cccc(-c2ccc(OC(F)(F)F)cc2)c1` [Example 3, N-[(1-oxidopyridin-1-ium-2-yl)methyl]-3-[4-(trifluoromethoxy)phenyl]benzamide], in assay [1], the “in vivo efficacy: % MPE” value is “++ (++: 40-70%,)”. Moreover, in assay [2], the inhibition at 10 µM lay within 70 to 100%.

As for `Cc1ccc(-c2cccc(C(=O)NCc3cccc[n+]3[O-])c2)cc1` [Example 14, N-[(1-oxidopyridin-1-ium-2-yl)methyl]-3-(p-tolyl)benzamide], in assay [1], the “in vivo efficacy: % MPE” value is recorded as “++ (++: 40-70%,)”. Further, in assay [2], the inhibition at 10 µM lay within 40 to 70%.

With `O=C(NCc1cccc[n+]1[O-])c1cccc(-c2ccc(F)c(F)c2)c1` [Example 19, 3-(3,4-difluorophenyl)-N-[(1-oxidopyridin-1-ium-2-yl)methyl]benzamide], in assay [1], the “in vivo efficacy: % MPE” value is recorded as “++ (++: 40-70%,)”. In addition, in assay [2], the inhibition at 10 µM is 40 to 70%.

Regarding `Cc1cc(-c2cccc(C(=O)NCc3cccc[n+]3[O-])c2)ccc1F` [Example 22, 3-(4-fluoro-3-methyl-phenyl)-N-[(1-oxidopyridin-1-ium-2-yl)methyl]benzamide], the “in vivo efficacy: % MPE” value in assay [1] is reported as “+ (+: 10-40%,)”. Besides, in assay [2], the inhibition at 10 µM lay within 40 to 70%.

In the case of `O=C(NCc1cccc[n+]1[O-])c1cc(-c2ccc(Cl)cc2)ccc1F` [Example 51, 5-(4-chlorophenyl)-2-fluoro-N-[(1-oxidopyridin-1-ium-2-yl)methyl]benzamide], the “in vivo efficacy: % MPE” value in assay [1] is given as “+++ (+++: 70-100%)”. Also, the inhibition at 10 µM in assay [2] fell in the range of 70 to 100%.

`O=C(NCc1cccc[n+]1[O-])c1cc(-c2ccc(Cl)cc2C(F)(F)F)ccc1F` [Example 55, 5-[4-chloro-2-(trifluoromethyl)phenyl]-2-fluoro-N-[(1-oxidopyridin-1-ium-2-yl)methyl]benzamide]: the inhibition at 10 µM in assay [2] is 40 to 70%.

As to `COc1cc(OC(F)(F)F)ccc1-c1ccc(F)c(C(=O)NCc2cccc[n+]2[O-])c1` [Example 56, 2-fluoro-5-[2-methoxy-4-(trifluoromethoxy)phenyl]-N-[(1-oxidopyridin-1-ium-2-yl)methyl]benzamide], the inhibition at 10 µM in assay [2] lay in the range of 70 to 100%.

With `O=C(NCc1cccc[n+]1[O-])c1cc(-c2ccc(C(F)(F)F)cc2)ccc1F` [Example 57, 2-fluoro-N-[(1-oxidopyridin-1-ium-2-yl)methyl]-5-[4-(trifluoromethyl)phenyl]benzamide], the inhibition at 10 µM in assay [2] was 70 to 100%.

For `O=C(NCc1cccc[n+]1[O-])c1cc(-c2ccc(OC(F)(F)F)cc2)ccc1F` [Example 58, 2-fluoro-N-[(1-oxidopyridin-1-ium-2-yl)methyl]-5-[4-(trifluoromethoxy)phenyl]benzamide], the inhibition at 10 µM in assay [2] lay within 70 to 100%.

Regarding `COc1cc(-c2ccc(F)c(C(=O)NCc3cccc[n+]3[O-])c2)ccc1C(F)(F)F` [Example 59, 2-fluoro-5-[3-methoxy-4-(trifluoromethyl)phenyl]-N-[(1-oxidopyridin-1-ium-2-yl)methyl]benzamide], in assay [2], the inhibition at 10 µM lay within 70 to 100%.

With `O=C(NCc1cccc[n+]1[O-])c1cc(-c2ccc(C(F)(F)F)c(F)c2)ccc1F` [Example 60, 2-fluoro-5-[3-fluoro-4-(trifluoromethyl)phenyl]-N-[(1-oxidopyridin-1-ium-2-yl)methyl]benzamide], the inhibition at 10 µM in assay [2] was 70 to 100%.

As to `O=C(NCc1ccc(F)c[n+]1[O-])c1cccc(-c2ccc(Cl)cc2)c1` [Example 61, 3-(4-chlorophenyl)-N-[(5-fluoro-1-oxido-pyridin-1-ium-2-yl)methyl]benzamide], in assay [2], the inhibition at 10 µM fell in the range of 70 to 100%.

`O=C(NCc1cccc[n+]1[O-])c1cc(-c2ccc(Cl)cc2)ccc1Cl` [Example 62, 2-chloro-5-(4-chlorophenyl)-N-[(1-oxidopyridin-1-ium-2-yl)methyl]benzamide]: the inhibition at 10 µM in assay [2] is 70 to 100%.

The values are drawn from patent US20250333383A1, “N-OXIDE COMPOUNDS AND USE THEREOF” (SK BIOPHARMACEUTICALS CO., LTD., priority 2022, published 2025).
